From EP4813463A2, “TYK2 INHIBITORS AND COMPOSITIONS AND METHODS THEREOF” (Lynk Pharmaceuticals Co. Ltd., priority 2023, dated 2024)

biological target: T1, TYK2-JH2 domain (Homo sapiens, UniProt P29597); test: Binding activity test for JH2 domain of TYK2 (Tb-antibody/tracer FRET); details: JH2 domain enzyme; 60 min at 25°C, then 4°C overnight; read-out: TYK2 JH2 Binding IC50
T1 construct: JAK1-JH2 domain or TYK2-JH2 domain enzyme in assay buffer
Description: Binding Activity test for JH2 domain of JAK1 and TYK2 […] Add 8μL/well in echo source plate, echo will add 75nL/well with 3-fold serial dilution for 11 points in assay plate. 75nL DMSO for high control and low control. […] For low control, add 5μL/well assay buffer. And then spin down at 1000rpm and centrifuge for 30 seconds. After enzyme system prepared, add 5μL of Tb-antibody solution into each well of assay plate. Spin down at 1000 rpm and centrifuge for 30sec. After Tb-antibody added, also add 5μL of tracer into the assay plate. Spin down at 1000rpm and centrifuge for 30sec. Incubate for […] at 25°C firstly and then continue to incubate the plate at 4°C overnight. Read by envision in FRET mode. The Luminescence value was recorded by a multi-label reader Envision (PerkinElmer). […] Table 2. IC50 on JH2 domain activity (nM)

T1 sequence (P29597 589-875 limits assumed): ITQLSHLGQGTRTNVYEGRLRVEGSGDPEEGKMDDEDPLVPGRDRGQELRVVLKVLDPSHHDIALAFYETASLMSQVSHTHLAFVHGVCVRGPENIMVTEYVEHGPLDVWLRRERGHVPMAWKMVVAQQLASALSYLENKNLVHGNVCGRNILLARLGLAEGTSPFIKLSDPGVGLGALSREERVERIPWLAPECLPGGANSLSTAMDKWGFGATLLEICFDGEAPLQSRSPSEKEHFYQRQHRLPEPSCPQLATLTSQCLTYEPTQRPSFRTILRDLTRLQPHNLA

| Structure (SMILES) | IC50 [nM] |
| --- | --- |
| CCOC(c1ccc2c(c(Nc3cc(NC(=O)C4CC4)ncc3C(=O)OC)nn2C)c1OC)C(F)(F)F (racemic) [Example 106, Methyl 6-(cyclopropanecarboxamido)-4-((5-(1-ethoxy-2,2,2-trifluoroethyl)-4-methoxy-1-methyl-1H-indazol-3-yl)amino)nicotinate] | 1.31 |
| CCOC(c1ccc2c(c(Nc3cc(NC(=O)C4CC4)ncc3C(=O)OC)nn2C)c1OC)C(F)(F)F (single isomer, unassigned) [Example 106A, Methyl (R*)-6-(cyclopropanecarboxamido)-4-((5-(1-ethoxy-2,2,2-trifluoroethyl)-4-methoxy-1-methyl-1H-indazol-3-yl)amino)nicotinate] | 4.31 |
| [2H]C([2H])([2H])NC(=O)c1cnc(NC(=O)C2CC2)cc1Nc1cnn2ccc(C)c(NC)c12 [Example 97, 6-(Cyclopropanecarbonylamino)-4-[[5-methyl-4-(methylamino)pyrazolo [1,5-a]pyridin-3-yl]amino]-N-(trideuteriomethyl)pyridine-3-carboxamide] | 2.37 |
| COC(=O)c1cnc(NC(=O)C2CC2)cc1Nc1cnn2ccc(C3CCCO3)c(OC)c12 (stereo not drawn) [Example 99, Methyl 6-(cyclopropanecarboxamido)-4-((4-methoxy-5-(tetrahydrofuran-2-yl)pyrazolo[1,5-a]pyridin-3-yl)amino)nicotinate] | 1.79 |
| COC(=O)c1nnc(NC(=O)C2CC2)cc1Nc1nn(C)c2ccc(C(OC)C(F)(F)F)c(OC)c12 (stereo not drawn) [Example 101, Methyl 6-(cyclopropanecarboxamido)-4-((4-methoxy-1-methyl-5-(2,2,2-trifluoro-1-methoxyethyl)-1H-indazol-3-yl)amino)pyridazine-3-carboxylate] | > 298 |
| COC(=O)c1cnc(NC(=O)C2CC2)cc1Nc1ncn2ccc(C)c(OC)c12 [Example 103, Methyl 6-(cyclopropanecarboxamido)-4-((8-methoxy-7-methylimidazo[1,5-a]pyridin-1-yl)amino)nicotinate] | 5.84 |
| COC(=O)c1cnc(NC(=O)C2CC2)cc1Nc1nn(COCC[Si](C)(C)C)c2ccc(C(OC)C(F)(F)F)c(OC)c12 (stereo not drawn) [Example 104, Methyl 6-(cyclopropanecarboxamido)-4-((4-methoxy-5-(2,2,2-trifluoro-1-methoxyethyl)-1-((2-(trimethylsilyl)ethoxy)methyl)-1H-indazol-3-yl)amino)nicotinate] | 13.7 |
| COC(=O)c1cnc(NC(=O)C2CC2)cc1Nc1nccc2c1N(C)[C@@H](C)c1nn(C)nc1-2 [Example 109, Methyl (S)-6-(cyclopropanecarboxamido)-4-((2,4,5-trimethyl-4,5-dihydro-2H-[1,2,3]triazolo[4,5-c][1,7]naphthyridin-6-yl)amino)nicotinate] | 0.836 |
| COC(=O)c1cnc(NC(=O)C2CC2)cc1Nc1ncn2ccc(C(OC)C(F)(F)F)c(OC)c12 (stereo not drawn) [Example 110, Methyl 6-(cyclopropanecarboxamido)-4-((8-methoxy-7-(2,2,2-trifluoro-1-methoxyethyl)imidazo[1,5-a]pyridin-1-yl)amino)nicotinate] | 2.47 |
| COC(=O)c1cnc(NC(=O)C2CC2)cc1Nc1nn(C)c2ccc(C(OC)C(C)C)c(OC)c12 (stereo not drawn) [Example 118, Methyl 6-(cyclopropanecarboxamido)-4-((4-methoxy-5-(1-methoxy-2-methylpropyl)-1-methyl-1H-indazol-3-yl)amino)nicotinate] | 0.943 |
| COC(=O)c1cnc(NC(=O)C2CC2)cc1Nc1nn(C2CC2)c2ccc(C(OC)C(F)(F)F)c(OC)c12 (stereo not drawn) [Example 119, Methyl 6-(cyclopropanecarboxamido)-4-((1-cyclopropyl-4-methoxy-5-(2,2,2-trifluoro-1-methoxyethyl)-1H-indazol-3-yl)amino)nicotinate] | 0.308 |
| CCC(OC)c1ccc2c(c(Nc3cc(NC(=O)C4CC4)ncc3C(=O)OC)nn2C)c1OC (stereo not drawn) [Example 121, Methyl 6-(cyclopropanecarboxamido)-4-((4-methoxy-5-(1-methoxypropyl)-1-methyl-1H-indazol-3-yl)amino)nicotinate] | 0.405 |
| COC(=O)c1cnc(NC(=O)C2CC2)cc1Nc1c2c(OC)c(C(C)C(F)(F)F)ccc2nn1C (stereo not drawn) [Example 124, Methyl 6-(cyclopropanecarboxamido)-4-((4-methoxy-2-methyl-5-(1,1,1-trifluoropropan-2-yl)-2H-indazol-3-yl)amino)nicotinate] | 90.3 |
| COC(=O)c1cnc(NC(=O)C2CC2)cc1Nc1nn(C)c2ccc(C#N)c(OC)c12 [Example 126, Methyl 4-((5-cyano-4-methoxy-1-methyl-1H-indazol-3-yl)amino)-6-(cyclopropanecarboxamido)nicotinate] | 1.79 |
| COC(=O)c1cnc(NC(=O)C2CC2)cc1Nc1ccn2ncc(C(OC)C(F)(F)F)c2c1OC (stereo not drawn) [Example 131, Methyl 6-(cyclopropanecarboxamido)-4-((4-methoxy-3-(2,2,2-trifluoro-1-methoxyethyl)pyrazolo[1,5-a]pyridin-5-yl)amino)nicotinate] | 12.7 |
| COC(=O)c1cnc(NC(=O)C2CC2)cc1Nc1nn(CC#N)c2ccc(C(OC)C(F)(F)F)c(OC)c12 (stereo not drawn) [Example 134, Methyl 4-((1-(cyanomethyl)-4-methoxy-5-(2,2,2-trifluoro-1-methoxyethyl)-1H-indazol-3-yl)amino)-6-(cyclopropanecarboxamido)nicotinate] | 1.52 |
| COC(=O)c1cnc(NC(=O)C2CC2)cc1Nc1nn(C)c2cnc(C(OC)C(F)(F)F)c(OC)c12 (stereo not drawn) [Example 138, Methyl 6-(cyclopropanecarbonylamino)-4-[[4-methoxy-1-methyl-5-(2,2,2-trifluoro-1-methoxy-ethyl)pyrazolo[3,4-c]pyridin-3-yl]amino]pyridine-3-carboxylate] | 1.22 |
| CCC(O)c1cnc(NC(=O)C2CC2)cc1Nc1nn(C)c2ccc([C@H](OC)C(F)(F)F)c(OC)c12 (stereo partly drawn) [Example 143, N-(5-(1-hydroxypropyl)-4-((4-methoxy-1-methyl-5-((S)-2,2,2-trifluoro-1-methoxyethyl)-1H-indazol-3-yl)amino)pyridin-2-yl)cyclopropanecarboxamide] | 34.7 |
| CCC(F)c1cnc(NC(=O)C2CC2)cc1Nc1nn(C)c2ccc([C@H](OC)C(F)(F)F)c(OC)c12 (stereo partly drawn) [Example 144, N-(5-(1-fluoropropyl)-4-((4-methoxy-1-methyl-5-((S)-2,2,2-trifluoro-1-methoxyethyl)-1H-indazol-3-yl)amino)pyridin-2-yl)cyclopropanecarboxamide] | 42.1 |
| COC(=O)c1cnc(NC(=O)C2CC2)cc1Nc1nn(C)c2cccc(OC)c12 [Example 146, Methyl 6-(cyclopropanecarboxamido)-4-((4-methoxy-1-methyl-1H-indazol-3-yl)amino)nicotinate] | 9.8 |

Next, values leading:

| IC50 [nM] | Structure (SMILES) |
| --- | --- |
| > 298 | COC(=O)c1c(Nc2nn(C)c3ccc(C(OC)C(F)(F)F)c(OC)c23)cc(NC(=O)C2CC2)nc1F (single isomer, unassigned) [Example 98A, Methyl (R*)-6-(cyclopropanecarboxamido)-2-fluoro-4-((4-methoxy-1-methyl-5-(2,2,2-trifluoro-1-methoxyethyl)-1H-indazol-3-yl)amino)nicotinate] |
| 3.88 | COC(=O)c1c(Nc2nn(C)c3ccc(C(OC)C(F)(F)F)c(OC)c23)cc(NC(=O)C2CC2)nc1F (single isomer, unassigned) [Example 98B, Methyl (S*)-6-(cyclopropanecarboxamido)-2-fluoro-4-((4-methoxy-1-methyl-5-(2,2,2-trifluoro-1-methoxyethyl)-1H-indazol-3-yl)amino)nicotinate] |
| 1.22 | COC(=O)c1cnc(NC(=O)C2CC2)cc1Nc1nn(C)c2ccc(C(OC)C(C)(F)F)c(OC)c12 (single isomer, unassigned) [Example 115B, Methyl (R*)-6-(cyclopropanecarboxamido)-4-((5-(2,2-difluoro-1-methoxypropyl)-4-methoxy-1-methyl-1H-indazol-3-yl)amino)nicotinate] |
| 1.41 | [2H]C([2H])([2H])OC(c1ccc2c(c(Nc3cc(NC(=O)C4CC4)ncc3C(=O)OC)nn2CCOC)c1OC)C(F)(F)F (single isomer, unassigned) [Example 157B, Methyl (R*)-6-(cyclopropanecarboxamido)-4-((4-methoxy-1-(2-methoxyethyl)-5-(2,2,2-trifluoro-1-methoxyethyl)-1H-indazol-3-yl)amino)nicotinate] |
| 0.627 | [2H]C([2H])([2H])O[C@H](c1ccc2c(c(Nc3cc(NC(=O)C4CC4)ncc3C(=O)OC)nn2C([2H])([2H])[2H])c1OC)C(F)(F)F [Example 53A, Methyl (R)-6-(cyclopropanecarboxamido)-4-((4-methoxy-1-(methyl-d3)-5-(2,2,2-trifluoro-1-(methoxy-d3)ethyl)-1H-indazol-3-yl)amino)nicotinate] |

same assay, conditions: read-out: TYK2 JH2 Binding IC50; JH2 domain enzyme; 60 min at 25°C, then 4°C overnight

| Structure (SMILES) | IC50 [nM] |
| --- | --- |
| COC(=O)c1cnc(NC(=O)[C@@H]2C[C@@H]2F)cc1Nc1nn(C)c2ccc(C(O)C(F)(F)F)c(OC)c12 (single isomer, unassigned) [Example 122B, Methyl 6-((1S,2S)-2-fluorocyclopropane-1-carboxamido)-4-((4-methoxy-1-methyl-5-((R*)-2,2,2-trifluoro-1-hydroxyethyl)-1H-indazol-3-yl)amino) nicotinate] | 0.733 |
| [2H]C([2H])([2H])OC(=O)c1cnc(NC(=O)C2CC2)cc1Nc1ncc2ccn(C([2H])([2H])C([2H])([2H])[2H])c2c1OC([2H])([2H])[2H] [Example 61, Methyl-d3 6-(cyclopropanecarboxamido)-4-((1-(ethyl-d5)-7-(methoxy-d3)-1H-pyrrolo[3,2-c]pyridin-6-yl)amino) nicotinate] | 1.36 |
